How the values were obtained:
[1] = system: premenopausal women with uterine leiomyomata; assay: Example 3: uterine size (uterine volume from ultrasound); type: in vivo, human
Procedure: (§2) The compound was administered using a commercially available nasal sprayer that delivered a 50 μL spray volume. The daily dose was administered by application of 50 μL to each nostril once per day, for a total daily volume of 100 μL. During the 12 week treatment period the patients kept daily bleeding calendars and underwent clinical assessments at scheduled intervals.
(§3) A 12 week study was performed to establish an effective dose of deslorelin for controlling heavy bleeding secondary to uterine leiomyomata. Forty-one premenopausal women completed the study and are identified as Subject Nos. 1 through 41. The women were divided into test groups for treatment with intranasal deslorelin as follows:
(§4) For one complete menstrual cycle prior to treatment, each woman completed a daily bleeding calendar. Eligible subjects were then treated with deslorelin at the assigned dosage once per day by intranasal application. During the 12 weeks of daily intranasal administration, each woman kept a daily bleeding calendar, completed quality of life questionnaires, and underwent clinical assessment and laboratory testing.

[2] = system: heavy bleeding secondary to uterine leiomyomata; assay: Example 3: bleeding score from daily bleeding calendars; type: in vivo, human
Procedure: as §2, §3, §4

[3] = system: premenopausal females with uterine fibroids; assay: Example 8: reduction of bleeding into the normal range; type: in vivo, human; details: deslorelin 1 mg/day intranasal
Procedure: (§1) Premenopausal females (n=265) with uterine fibroids were recruited for participation in a 12 month double blind study. The women were randomly assigned to treatment in one of the following five study arms: Deslorelin at a daily dose of 1 mg was administered intranasally using a conventional metered spray delivery device. The intranasal preparation was a 100 μL daily nasal spray containing 1.0 mg deslorelin. […] Women with uterine fibroids often experience very heavy bleeding (menorrhagia) and uterine enlargement leading to pelvic pain and pressure symptoms. Clinical benefit was assessed by measuring changes in bleeding score (percent of subjects with reduction of bleeding into the normal range) and uterine volume. Shown in Table 9A are the percent of subjects responding (reduction of bleeding into the normal range) after 3 and 6 months of treatment.

[4] = system: premenopausal females with uterine fibroids; assay: Example 8: change in uterine volume; type: in vivo, human; details: 6 Months of treatment compared to baseline
Procedure: as §1

[5] = system: bone mineral density of the lumbar spine; details: in vivo
Text: Bone mineral density (BMD) of the lumbar spine was obtained by dual-energy X-ray absorptiometry (DEXA) prior to and after six months of drug treatment.

[6] = system: ovarian estrogen and progesterone production; assay: Example 3: serum hormone levels
Procedure: In a first study, deslorelin was administered alone to determine an appropriate dose for treatment of an exemplary benign gynecological disorder, uterine leiomyomata (fibroids). More specifically, the dose appropriate to control the heavy bleeding secondary to uterine leiomyomata was determined. […] The compound was administered using a commercially available nasal sprayer that delivered a 50 μL spray volume. The daily dose was administered by application of 50 μL to each nostril once per day, for a total daily volume of 100 μL. During the 12 week treatment period the patients kept daily bleeding calendars and underwent clinical assessments at scheduled intervals. Clinical assessments included grading of nasal irritation (Table 5A), determination of uterine size (Table 5B), and serum hormone levels (Table 5C).
Eligible subjects were then treated with deslorelin at the assigned dosage once per day by intranasal application. During the 12 weeks of daily intranasal administration, each woman kept a daily bleeding calendar, completed quality of life questionnaires, and underwent clinical assessment and laboratory testing. […] Clinical assessments included grading of nasal irritation (Table 5A), determination of uterine size (Table 5B), and serum hormone levels (Table 5C).

[7] = Deslorelin 0.5 mg/day, Baseline
[8] = Deslorelin 0.5 mg/day, End of Week 4
[9] = Deslorelin 0.5 mg/day, End of Week 8
[10] = Deslorelin 0.5 mg/day, End of Week 12
[11] = Deslorelin 1 mg/day, End of Week 4
[12] = Deslorelin 1 mg/day, End of Week 8
[13] = Deslorelin 1 mg/day, End of Week 12
[14] = Deslorelin 2 mg/day, End of Week 4
[15] = Deslorelin 2 mg/day, End of Week 8
[16] = Deslorelin 2 mg/day, End of Week 12

CCNC(=O)[C@@H]1CCCN1C(=O)[C@H](CCCN=C(N)N)NC(=O)[C@H](CC(C)C)NC(=O)[C@@H](Cc1c[nH]c2ccccc12)NC(=O)[C@H](Cc1ccc(O)cc1)NC(=O)[C@H](CO)NC(=O)[C@H](Cc1c[nH]c2ccccc12)NC(=O)[C@H](Cc1cnc[nH]1)NC(=O)[C@@H]1CCC(=O)N1 [Deslorelin, (pyro)Pro-His-Trp-Ser-Tyr-DTrp-Leu-Arg-Pro-ethylamide]
uterine volume calculated from ultrasound determined dimensions (in words) ([1]; 0.5, 1.0, 2.0 mg/day, 12 weeks): reduction in uterine volume | Uterine Size Mean Difference (end of week 12 minus baseline uterine volume) ([1]; Deslorelin 0.5 mg/day intranasal): −109.6 cm^3 | Uterine Size Mean Difference (end of week 12 minus baseline uterine volume) ([1]; Deslorelin 1 mg/day intranasal): −63.6 cm^3 | Uterine Size Mean Difference (end of week 12 minus baseline uterine volume) ([1]; Deslorelin 2 mg/day intranasal): −246.5 cm^3 | Bleeding Score ([2]; Deslorelin 0.5 mg/day, Baseline Score, 0 no bleeding, 5 normal flow, 10 or greater menorrhagia): 10.9 | Bleeding Score ([2]; Deslorelin 0.5 mg/day, Weeks 1-4): 6.6 | Bleeding Score ([2]; Deslorelin 0.5 mg/day, Weeks 5-8): 3.5 | Bleeding Score ([2]; Deslorelin 0.5 mg/day, Weeks 9-12): 2.6 | Bleeding Score ([2]; Deslorelin 1 mg/day, Baseline Score): 10.8 | Bleeding Score ([2]; Deslorelin 1 mg/day, Weeks 1-4): 7.8 | Bleeding Score ([2]; Deslorelin 1 mg/day, Weeks 5-8): 0.4 | Bleeding Score ([2]; Deslorelin 1 mg/day, Weeks 9-12): 1.7 | Bleeding Score ([2]; Deslorelin 2 mg/day, Baseline Score): 14.1 | Bleeding Score ([2]; Deslorelin 2 mg/day, Weeks 1-4): 6.6 | Bleeding Score ([2]; Deslorelin 2 mg/day, Weeks 5-8): 1.2 | Bleeding Score ([2]; Deslorelin 2 mg/day, Weeks 9-12): 0.6 | effectiveness (in words) ([2]; all tested doses (0.5, 1.0, 2.0 mg/day)): partially or completely effective with reduction of bleeding, associated pain, and uterine size | bleeding score (in words) ([2]; end of the 12 week study): marked improvement in their bleeding score | % with reduction of bleeding into the normal range ([3]; 3 Months): 69% | % with reduction of bleeding into the normal range ([3]; 6 Months): 92% | Proportion of Initial Volume (uterine volume) [4]: 0.675 | Mean Ratio (BMD6 mo/BMDbaseline) [5]: 0.971 | Hormone Levels: Estradiol [6, 7]: 173 pg/mL | Hormone Levels: Progesterone [6, 7]: 641 ng/dL | Hormone Levels: Testosterone [6, 7]: 24 ng/dL | Hormone Levels: Estradiol [6, 8]: 47 pg/mL | Hormone Levels: Progesterone [6, 8]: 40 ng/dL | Hormone Levels: Testosterone [6, 8]: 19 ng/dL | Hormone Levels: Estradiol [6, 9]: 79 pg/mL | Hormone Levels: Progesterone [6, 9]: 30 ng/dL | Hormone Levels: Testosterone [6, 9]: 22 ng/dL | Hormone Levels: Estradiol [6, 10]: 66 pg/mL | Hormone Levels: Progesterone [6, 10]: 37 ng/dL | Hormone Levels: Testosterone [6, 10]: 23 ng/dL | Hormone Levels: Estradiol ([6]; Deslorelin 1 mg/day, Baseline): 123 pg/mL | Hormone Levels: Progesterone ([6]; Deslorelin 1 mg/day, Baseline): 480 ng/dL | Hormone Levels: Testosterone ([6]; Deslorelin 1 mg/day, Baseline): 26 ng/dL | Hormone Levels: Estradiol [6, 11]: 51 pg/mL | Hormone Levels: Progesterone [6, 11]: 12 ng/dL | Hormone Levels: Testosterone [6, 11]: 22 ng/dL | Hormone Levels: Estradiol [6, 12]: 95 pg/mL | Hormone Levels: Progesterone [6, 12]: 25 ng/dL | Hormone Levels: Testosterone [6, 12]: 20 ng/dL | Hormone Levels: Estradiol [6, 13]: 30 pg/mL | Hormone Levels: Progesterone [6, 13]: 10 ng/dL | Hormone Levels: Testosterone [6, 13]: 16 ng/dL | Hormone Levels: Estradiol ([6]; Deslorelin 2 mg/day, Baseline): 184 pg/mL | Hormone Levels: Progesterone ([6]; Deslorelin 2 mg/day, Baseline): 337 ng/dL | Hormone Levels: Testosterone ([6]; Deslorelin 2 mg/day, Baseline): 34 ng/dL | Hormone Levels: Estradiol [6, 14]: 14 pg/mL | Hormone Levels: Progesterone [6, 14]: 12 ng/dL | Hormone Levels: Testosterone [6, 14]: 16 ng/dL | Hormone Levels: Estradiol [6, 15]: 31 pg/mL | Hormone Levels: Progesterone [6, 15]: 14 ng/dL | Hormone Levels: Testosterone [6, 15]: 20 ng/dL | Hormone Levels: Estradiol [6, 16]: 30 pg/mL | Hormone Levels: Progesterone [6, 16]: 13 ng/dL | Hormone Levels: Testosterone [6, 16]: 20 ng/dL
